In ChEMBL document CHEMBL5390227, “Development of QTMP: A promising anticancer agent through NP-Privileged Motif-Driven structural modulation” (Bioorg Med Chem, 2023):
Calls of active or inactive are those of the source. No cut-off for these calls is given here.

How the values were obtained:
HeLa [1] = test: Antiproliferative activity against human HeLa cells assessed as inhibition of cell growth at 25 nM measured after 24 hrs by SRB assay relative to control; assay type: functional
HeLa [2] = test: Antiproliferative activity against human HeLa cells assessed as reduction in cell growth by SRB assay; assay type: functional, cell-based
A549 [3] = test: Antiproliferative activity against human A549 cells assessed as reduction in cell growth by SRB assay; assay type: functional, cell-based
T47D = test: Antiproliferative activity against human T47D cells assessed as reduction in cell growth by SRB assay; assay type: functional, cell-based
MDA-MB-231 = test: Antiproliferative activity against human MDA-MB-231 cells assessed as reduction in cell growth by SRB assay; assay type: functional, cell-based
MCF7 = test: Antiproliferative activity against human MCF7 cells assessed as reduction in cell growth by SRB assay; assay type: functional, cell-based
[4] = Antiproliferative activity against human H357 cells assessed as reduction in cell growth by SRB assay; assay type: functional, cell-based
[5] = Cytotoxicity against mouse L929 cells assessed as reduction in cell growth by SRB assay; assay type: toxicity, cell-based
B16-F10 = test: Antiproliferative activity against mouse B16-F10 cells assessed as reduction in cell growth by SRB assay; assay type: functional, cell-based
A549 [6] = test: Induction of cell cycle arrest in human A549 cells assessed as accumulation of cells at G1 phase at 20 nM incubated for 12 hrs by propidium iodide/RNase-staining based flow cytometry analysis (reference value: 67 +/- 11%); assay type: functional
A549 [7] = test: Induction of cell cycle arrest in human A549 cells assessed as accumulation of cells at S phase at 20 nM incubated for 12 hrs by propidium iodide/RNase-staining based flow cytometry analysis (reference value: 22 +/- 6%); assay type: functional
A549 [8] = test: Induction of cell cycle arrest in human A549 cells assessed as accumulation of cells at G2/M phase at 20 nM incubated for 12 hrs by propidium iodide/RNase-staining based flow cytometry analysis (reference value: 11 +/- 4%); assay type: functional
A549 [9] = test: Cytotoxicity against human A549 cells assessed as proportion of dead cells at 20 nM incubated for 24 hrs by PI-staining based flow cytometry analysis (reference value: 9.8 to 9.9%); assay type: functional
A549 [10] = test: Cytotoxicity against human A549 cells assessed as proportion of live cells at 20 nM incubated for 24 hrs by PI-staining based flow cytometry analysis (reference value: 90.1 to 90.2%); assay type: functional
[11] = Aqueous stability of the compound in PBS assessed as absorbance at 40 uM measured at pH 7.2 after 24 hrs by spectrophotometer analysis; assay type: physicochemical; settings: read-out: Stability
Tubulin (Homo sapiens) [12] = target: T1, Tubulin (Homo sapiens) (UniProt P68371+Q9H4B7+P0DPH7+P68366+Q13509+Q71U36+P04350+Q3ZCM7+P07437+P68363+Q9BQE3+Q6PEY2+Q13885+Q9BVA1+Q9BUF5); test: Inhibition of tubulin polymerization in human A549 cells assessed as induction of interphase microtubule disorganization at 10 nM measured after 24 hrs by Hoechst-33258 staining based immunofluorescence analysis; assay type: cell-based
A549 [13] = test: Induction of cell cycle arrest in human A549 cells assessed as accumulation of cells at G1 phase at 10 nM incubated for 12 hrs by propidium iodide/RNase-staining based flow cytometry analysis (reference value: 67 +/- 11%); assay type: functional
A549 [14] = test: Induction of cell cycle arrest in human A549 cells assessed as accumulation of cells at S phase at 10 nM incubated for 12 hrs by propidium iodide/RNase-staining based flow cytometry analysis (reference value: 22 +/- 6%); assay type: functional
A549 [15] = test: Induction of cell cycle arrest in human A549 cells assessed as accumulation of cells at G2/M phase at 10 nM incubated for 12 hrs by propidium iodide/RNase-staining based flow cytometry analysis (reference value: 11 +/- 4%); assay type: functional
A549 [16] = test: Cytotoxicity against human A549 cells assessed as proportion of live cells at 10 nM incubated for 24 hrs by PI-staining based flow cytometry analysis (reference value: 90.1 to 90.2%); assay type: functional
A549 [17] = test: Cytotoxicity against human A549 cells assessed as proportion of dead cells at 10 nM incubated for 24 hrs by PI-staining based flow cytometry analysis (reference value: 9.8 to 9.9%); assay type: functional
[18] = Selectivity index, ratio of IC50 for cytotoxicity against mouse L929 cells to IC50 for antiproliferative activity against mouse B16-F10 cells; assay type: toxicity, cell-based; settings: L929 cells versus B16-F10 cells, read-out: Ratio IC50
[19] = Aqueous stability of the compound in PBS assessed as absorbance at 40 uM measured at pH 7.2 after 20 days by spectrophotometer analysis; assay type: physicochemical; settings: time 20 day, read-out: Stability
Tubulin (Homo sapiens) [20] = target: T1, Tubulin (Homo sapiens); test: Inhibition of tubulin polymerization in human A549 cells assessed as induction of interphase microtubule disorganization at 20 nM measured after 24 hrs by Hoechst-33258 staining based immunofluorescence analysis; assay type: cell-based
Tubulin (Homo sapiens) [21] = target: T1, Tubulin (Homo sapiens); test: Inhibition of tubulin polymerization in human A549 cells assessed as reduction in fluorescence intensity of microtubules at 10 nM measured after 24 hrs by Hoechst-33258 staining based immunofluorescence analysis relative to control; assay type: cell-based
Tubulin (Homo sapiens) [22] = target: T1, Tubulin (Homo sapiens); test: Inhibition of tubulin polymerization in human A549 cells assessed as reduction in fluorescence intensity of microtubules at 20 nM measured after 24 hrs by Hoechst-33258 staining based immunofluorescence analysis relative to control; assay type: cell-based
Tubulin (Homo sapiens) [23] = target: T1, Tubulin (Homo sapiens); test: Inhibition of tubulin polymerization in human A549 cells assessed as induction of mitotic spindle microtubules depolymerization at 20 nM measured after 24 hrs by Hoechst-33258 staining based immunofluorescence analysis; assay type: cell-based
Tubulin (Homo sapiens) [24] = target: T1, Tubulin (Homo sapiens); test: Inhibition of tubulin polymerization in human HeLa cells assessed as induction of interphase microtubule depolymerization at 10 to 20 nM measured after 24 hrs by Hoechst-33258 staining based immunofluorescence analysis; assay type: cell-based; settings: dose 10-20 nM
Tubulin (Homo sapiens) [25] = target: T1, Tubulin (Homo sapiens); test: Inhibition of tubulin polymerization in human HeLa cells assessed as induction of mitotic microtubule depolymerization at 10 to 20 nM measured after 24 hrs by Hoechst-33258 staining based immunofluorescence analysis; assay type: cell-based; settings: dose 10-20 nM
Capra hircus [26] = organism: Capra hircus; test: Inhibition of goat brain tubulin polymerization at 0.5 uM incubated for 10 mins followed by GTP addition and measured for 35 mins by spectrophotometric analysis relative to control; settings: time 45.0 min
Capra hircus [27] = organism: Capra hircus; test: Inhibition of goat brain tubulin polymerization at 1 uM incubated for 10 mins followed by GTP addition and measured for 35 mins by spectrophotometric analysis relative to control; assay type: tissue-based; settings: time 45.0 min
Capra hircus [28] = organism: Capra hircus; test: Inhibition of goat brain tubulin polymerization at 2 uM incubated for 10 mins followed by GTP addition and measured for 35 mins by spectrophotometric analysis relative to control; settings: time 45.0 min
Capra hircus [29] = organism: Capra hircus; test: Inhibition of goat brain tubulin polymerization at 3 uM incubated for 10 mins followed by GTP addition and measured for 35 mins by spectrophotometric analysis relative to control; assay type: tissue-based; settings: time 45.0 min
Capra hircus [30] = organism: Capra hircus; test: Inhibition of goat brain tubulin polymerization at 5 uM incubated for 10 mins followed by GTP addition and measured for 35 mins by spectrophotometric analysis relative to control; settings: time 45.0 min
[31] = Inhibition of goat brain tubulin polymerization incubated for 10 mins followed by GTP addition and measured for 35 mins by spectrophotometric analysis; assay type: tissue-based, Capra hircus
Capra hircus [32] = organism: Capra hircus; test: Inhibition of goat brain tubulin polymerization assessed as reduction in initial rate of tubulin polymerization incubated for 10 mins followed by GTP addition and measured for 35 mins by spectrophotometric analysis; assay type: tissue-based; settings: dose 2-6 µM, time 45.0 min
[33] = Binding affinity to goat brain tubulin assessed as increase in fluorescence intensity incubated for 30 mins by spectrofluorometric analysis; assay type: tissue-based, Capra hircus
Capra hircus [34] = organism: Capra hircus; test: Binding affinity to colchicine binding site of goat brain tubulin assessed as tubulin-compound complex fluorescence intensity at 10 uM preincubated with CA-4 for 30 mins followed by compound addition and measured after 30 mins by fluorescence based analysis
Capra hircus [35] = organism: Capra hircus; test: Binding affinity to colchicine binding site of goat brain tubulin assessed as tubulin-compound complex fluorescence intensity at 10 uM preincubated with podophyllotoxin for 30 mins followed by compound addition and measured after 30 mins by fluorescence based analysis

`COc1cc(-c2nc(N)[nH]c2-c2ccc3cnccc3c2)cc(OC)c1OC` showed an inhibition at 0.025 µM (HeLa [1]) of 46% and an IC50 (HeLa [2]) of 46 nM.
`COc1cc(-c2nc(N)[nH]c2-c2ccnc3ccccc23)cc(OC)c1OC` showed an inhibition at 0.025 µM (HeLa [1]) of 7%.
Work on `COc1cc(-c2nc(N)[nH]c2-c2ccc3ncccc3c2)cc(OC)c1OC` yielded an inhibition at 0.025 µM (HeLa [1]) of 9%.
With `COc1ccc(/C=C\c2cc(OC)c(OC)c(OC)c2)cc1O` [COMBRETASTATIN A4] the inhibition at 0.025 µM (HeLa [1]) was 57%, the IC50 (HeLa [2]) was 24 nM and the IC50 (A549 [3]) was 43 nM. The IC50 (T47D) was 407 nM, the IC50 (MDA-MB-231) was 100 nM and the IC50 (MCF7) was 24 nM. The IC50 [4] was 3.5 nM, the IC50 [5] was 117 nM and the IC50 (B16-F10) was 82 nM. It also gave an Activity (A549 [6]) of 65%, an Activity (A549 [7]) of 18% and an Activity (A549 [8]) of 17%. It also gave an Activity (A549 [9]) of 7.37%, an Activity (A549 [10]) of 90.4% and a remaining at 24 h, 40 µM [11] of 47%.
`COc1cc(-c2nc(N)[nH]c2-c2cccc3ncccc23)cc(OC)c1OC` showed an inhibition at 0.025 µM (HeLa [1]) of 27%.
With `COc1cc(-c2nc(N)[nH]c2-c2ccc3ccccc3n2)cc(OC)c1OC` the inhibition (Tubulin (Homo sapiens) [12]) was “Active”, the inhibition at 0.025 µM (HeLa [1]) was 74% and the IC50 (HeLa [2]) was 10 nM. It also gave an IC50 (A549 [3]) of 12 nM, an IC50 (T47D) of 47 nM and an IC50 (MDA-MB-231) of 13 nM. It also gave an IC50 (MCF7) of 20 nM, an IC50 [4] of 15 nM and an IC50 [5] of 69 nM. It also gave an IC50 (B16-F10) of 25 nM, an Activity (A549 [13]) of 51% and an Activity (A549 [14]) of 20%. It also gave an Activity (A549 [6]) of 37%, an Activity (A549 [15]) of 29% and an Activity (A549 [7]) of 19%. It also gave an Activity (A549 [8]) of 44%, an Activity (A549 [16]) of 76.7% and an Activity (A549 [9]) of 35.9%. The Activity (A549 [17]) was 22%, the Activity (A549 [10]) was 62.7% and the selectivity ratio [18] was 2.76. The remaining at 480 h, 40 µM [19] was 47%, the inhibition (Tubulin (Homo sapiens) [20]) was “Active” and the inhibition (Tubulin (Homo sapiens) [21]) was 23.6%. The inhibition (Tubulin (Homo sapiens) [22]) was 53.2%, the inhibition (Tubulin (Homo sapiens) [23]) was “Active” and the inhibition (Tubulin (Homo sapiens) [24]) was “Active”. The inhibition (Tubulin (Homo sapiens) [25]) was “Active”, the inhibition (Capra hircus [26]) was 8% and the inhibition (Capra hircus [27]) was 11%. The inhibition (Capra hircus [28]) was 28%, the inhibition (Capra hircus [29]) was 45% and the inhibition (Capra hircus [30]) was 75%. For the same compound, the IC50 [31] was 3400 nM, the inhibition (Capra hircus [32]) was “Dose-Dependent Effect” and the Kd [33] was 5000 nM. The Activity (Capra hircus [34]) was “inactive” and the Activity (Capra hircus [35]) was “inactive”.
Compound `COc1cc(-c2nc(N)[nH]c2-c2cnc3ccc(Cl)cc3c2)cc(OC)c1OC` has an inhibition at 0.025 µM (HeLa [1]) of 11%.
`COc1cc(-c2nc(N)[nH]c2-c2cncc3ccccc23)cc(OC)c1OC` gave an inhibition at 0.025 µM (HeLa [1]) of 47% and an IC50 (HeLa [2]) of 41 nM.
Work on `COc1cc(-c2nc(N)[nH]c2-c2ccc3ccccc3c2)cc(OC)c1OC` yielded an inhibition at 0.025 µM (HeLa [1]) of 34%.
Work on `COc1cc(-c2nc(N)[nH]c2-c2cnc3ccc(C)cc3c2)cc(OC)c1OC` yielded an inhibition at 0.025 µM (HeLa [1]) of 8%.
For `COc1cc(-c2nc(N)[nH]c2-c2cccc3cccnc23)cc(OC)c1OC`, the inhibition at 0.025 µM (HeLa [1]) was 32%.
`COc1cc(-c2nc(N)[nH]c2-c2ccnc3cc(Cl)ccc23)cc(OC)c1OC` showed an inhibition at 0.025 µM (HeLa [1]) of 11%.
`COc1ccc2ncc(-c3[nH]c(N)nc3-c3cc(OC)c(OC)c(OC)c3)cc2c1` showed an inhibition at 0.025 µM (HeLa [1]) of 30%.
`COc1cc(-c2nc(N)[nH]c2-c2ccc3nc(C)ccc3c2)cc(OC)c1OC` gave an inhibition at 0.025 µM (HeLa [1]) of 5%.
With `COc1cc(-c2nc(N)[nH]c2-c2cccc3cnccc23)cc(OC)c1OC` the inhibition at 0.025 µM (HeLa [1]) was 43%.
